According to ChEMBL document CHEMBL1201862, “PubChem BioAssay data set” (2004):
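In this assay, cells in 96-well plates receive the compound at five concentrations for 48 hours. Endpoints are linearly interpolated between the surrounding concentrations. At the GI50, growth is halved.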 Active and inactive are the calls of the source. Cut-off read from the data, not from the text of the source: active = GI50 up to about 1.1 µM and inactive = higher.

What was measured:
Test in all cases: NCI anticancer screen, dose series, 48 h
786-0 = system: 786-0
A498 = system: A498
A549 = system: A549
ACHN = system: ACHN
CAKI-1 = system: CAKI-1
CCRF-CEM = system: CCRF-CEM
COLO 205 = system: COLO 205
DLD-1 = system: DLD-1
DMS-114 = system: DMS-114
EKVX = system: EKVX
HCC 2998 = system: HCC 2998
HCT-116 = system: HCT-116
HCT-15 = system: HCT-15
HL-60 = system: HL-60
HOP-18 = system: HOP-18
HOP-62 = system: HOP-62
HOP-92 = system: HOP-92
HT-29 = system: HT-29
IGROV-1 = system: IGROV-1
K562 = system: K562
KM-20L2 = system: KM-20L2
KM12 = system: KM12
LOX IMVI = system: LOX IMVI
LXFL 529 = system: LXFL 529
M14 = system: M14
M19-MEL = system: M19-MEL
MOLT-4 = system: MOLT-4
Malme-3M = system: Malme-3M
NCI-H226 = system: NCI-H226
NCI-H23 = system: NCI-H23
NCI-H460 = system: NCI-H460
NCI-H522 = system: NCI-H522
OVCAR-3 = system: OVCAR-3
OVCAR-5 = system: OVCAR-5
OVCAR-8 = system: OVCAR-8
RPMI-8226 = system: RPMI-8226
RXF 393 = system: RXF 393
RXF 631 = system: RXF 631
SF-268 = system: SF-268
SF-295 = system: SF-295
SF-539 = system: SF-539
SK-MEL-28 = system: SK-MEL-28
SK-MEL-2 = system: SK-MEL-2
SK-MEL-5 = system: SK-MEL-5
SK-OV-3 = system: SK-OV-3
SN12C = system: SN12C
SNB-19 = system: SNB-19
SNB-75 = system: SNB-75
SNB-78 = system: SNB-78
SR = system: SR
SW-620 = system: SW-620
TK-10 = system: TK-10
U-251 = system: U-251
UACC-257 = system: UACC-257
UACC-62 = system: UACC-62
UO-31 = system: UO-31
XF498 = system: XF498
OVCAR-4 = system: OVCAR-4

Compound: C/C(=N\NC(N)=S)c1ccc2c(c1)OCO2
- GI50 (786-0): > 100 µM (inactive)
- GI50 (A498): > 100 µM (inactive)
- GI50 (A549): > 100 µM (inactive)
- GI50 (ACHN): > 100 µM (inactive)
- GI50 (CAKI-1): > 100 µM (inactive)
- GI50 (CCRF-CEM): 56.8 µM (inactive)
- GI50 (COLO 205): > 100 µM (inactive)
- GI50 (DLD-1): 61.9 µM (inactive)
- GI50 (DMS-114): 94.8 µM (inactive)
- GI50 (EKVX): 13.9 µM (inactive)
- GI50 (HCC 2998): > 100 µM (inactive)
- GI50 (HCT-116): > 100 µM (inactive)
- GI50 (HCT-15): > 100 µM
- GI50 (HL-60): 21.2 µM (inactive)
- GI50 (HOP-18): > 100 µM (inactive)
- GI50 (HOP-62): > 100 µM (inactive)
- GI50 (HOP-92): > 100 µM (inactive)
- GI50 (HT-29): > 100 µM (inactive)
- GI50 (IGROV-1): > 100 µM (inactive)
- GI50 (K562): > 100 µM (inactive)
- GI50 (KM-20L2): > 100 µM (inactive)
- GI50 (KM12): > 100 µM (inactive)
- GI50 (LOX IMVI): > 100 µM (inactive)
- GI50 (LXFL 529): > 100 µM (inactive)
- GI50 (M14): > 100 µM (inactive)
- GI50 (M19-MEL): > 100 µM (inactive)
- GI50 (MOLT-4): > 100 µM (inactive)
- GI50 (Malme-3M): > 100 µM (inactive)
- GI50 (NCI-H226): > 100 µM (inactive)
- GI50 (NCI-H23): > 100 µM (inactive)
- GI50 (NCI-H460): > 100 µM (inactive)
- GI50 (NCI-H522): 32.4 µM (inactive)
- GI50 (OVCAR-3): > 100 µM (inactive)
- GI50 (OVCAR-5): > 100 µM (inactive)
- GI50 (OVCAR-8): > 100 µM (inactive)
- GI50 (RPMI-8226): > 100 µM (inactive)
- GI50 (RXF 393): > 100 µM (inactive)
- GI50 (RXF 631): > 100 µM (inactive)
- GI50 (SF-268): > 100 µM (inactive)
- GI50 (SF-295): > 100 µM (inactive)
- GI50 (SF-539): > 100 µM (inactive)
- GI50 (SK-MEL-28): > 100 µM (inactive)
- GI50 (SK-MEL-2): > 100 µM (inactive)
- GI50 (SK-MEL-5): > 100 µM (inactive)
- GI50 (SK-OV-3): > 100 µM (inactive)
- GI50 (SN12C): > 100 µM (inactive)
- GI50 (SNB-19): > 100 µM (inactive)
- GI50 (SNB-75): > 100 µM (inactive)
- GI50 (SNB-78): > 100 µM (inactive)
- GI50 (SR): > 100 µM (inactive)
- GI50 (SW-620): > 100 µM (inactive)
- GI50 (TK-10): > 100 µM (inactive)
- GI50 (U-251): > 100 µM (inactive)
- GI50 (UACC-257): 99.1 µM (inactive)
- GI50 (UACC-62): > 100 µM (inactive)
- GI50 (UO-31): 76.2 µM (inactive)
- GI50 (XF498): > 100 µM (inactive)

Compound: CCOC(=O)NC(=O)c1cn(-c2ccc(CCOC(=O)CCCCCCCCC(=O)OCCc3ccc(-n4cc(C(=O)NC(=O)OCC)c(=O)[nH]c4=O)cc3)cc2)c(=O)[nH]c1=O
- GI50 (786-0): > 100 µM (inactive)
- GI50 (A549): > 100 µM (inactive)
- GI50 (ACHN): > 100 µM (inactive)
- GI50 (CCRF-CEM): > 100 µM (inactive)
- GI50 (COLO 205): > 100 µM (inactive)
- GI50 (DLD-1): > 100 µM (inactive)
- GI50 (DMS-114): > 100 µM (inactive)
- GI50 (EKVX): > 100 µM (inactive)
- GI50 (HCC 2998): > 100 µM (inactive)
- GI50 (HCT-116): > 100 µM (inactive)
- GI50 (HCT-15): > 100 µM
- GI50 (HL-60): > 100 µM (inactive)
- GI50 (HOP-18): > 100 µM (inactive)
- GI50 (HOP-62): > 100 µM (inactive)
- GI50 (HOP-92): 26 µM (inactive)
- GI50 (HT-29): > 100 µM (inactive)
- GI50 (IGROV-1): 76.4 µM (inactive)
- GI50 (K562): > 100 µM (inactive)
- GI50 (KM-20L2): > 100 µM (inactive)
- GI50 (KM12): > 100 µM (inactive)
- GI50 (LOX IMVI): > 100 µM (inactive)
- GI50 (LXFL 529): > 100 µM (inactive)
- GI50 (M14): > 100 µM (inactive)
- GI50 (M19-MEL): > 100 µM (inactive)
- GI50 (MOLT-4): > 100 µM (inactive)
- GI50 (Malme-3M): > 100 µM (inactive)
- GI50 (NCI-H226): > 100 µM (inactive)
- GI50 (NCI-H23): > 100 µM (inactive)
- GI50 (NCI-H460): > 100 µM (inactive)
- GI50 (OVCAR-3): > 100 µM (inactive)
- GI50 (OVCAR-4): > 100 µM (inactive)
- GI50 (OVCAR-5): > 100 µM (inactive)
- GI50 (OVCAR-8): > 100 µM (inactive)
- GI50 (RPMI-8226): > 100 µM (inactive)
- GI50 (RXF 393): > 100 µM (inactive)
- GI50 (RXF 631): > 100 µM (inactive)
- GI50 (SF-268): > 100 µM (inactive)
- GI50 (SF-295): > 100 µM (inactive)
- GI50 (SF-539): > 100 µM (inactive)
- GI50 (SK-MEL-28): > 100 µM (inactive)
- GI50 (SK-MEL-2): > 100 µM (inactive)
- GI50 (SK-MEL-5): > 100 µM (inactive)
- GI50 (SK-OV-3): > 100 µM (inactive)
- GI50 (SN12C): > 100 µM (inactive)
- GI50 (SNB-19): 59 µM (inactive)
- GI50 (SNB-78): > 100 µM (inactive)
- GI50 (SR): > 100 µM (inactive)
- GI50 (SW-620): > 100 µM (inactive)
- GI50 (TK-10): 42.8 µM (inactive)
- GI50 (U-251): 49.9 µM (inactive)
- GI50 (UACC-257): > 100 µM (inactive)
- GI50 (UACC-62): > 100 µM (inactive)
- GI50 (UO-31): > 100 µM (inactive)
- GI50 (XF498): > 100 µM (inactive)

Compound: CC(=O)c1c2c(cc3c1CC1(C3)Cc3cc4c(c(C(C)=O)c3C1)CCC4)CCC2
- GI50 (786-0): > 100 µM (inactive)
- GI50 (A549): > 100 µM (inactive)
- GI50 (ACHN): > 100 µM (inactive)
- GI50 (CAKI-1): > 100 µM (inactive)
- GI50 (CCRF-CEM): > 100 µM (inactive)
- GI50 (COLO 205): > 100 µM (inactive)
- GI50 (DLD-1): > 100 µM (inactive)
- GI50 (DMS-114): > 100 µM (inactive)
- GI50 (HCC 2998): > 100 µM (inactive)
- GI50 (HCT-116): > 100 µM (inactive)
- GI50 (HL-60): 19.3 µM (inactive)
- GI50 (HOP-18): > 100 µM (inactive)
- GI50 (HOP-62): > 100 µM (inactive)
- GI50 (HOP-92): > 100 µM (inactive)
- GI50 (HT-29): > 100 µM (inactive)
- GI50 (IGROV-1): > 100 µM (inactive)
- GI50 (K562): 38 µM (inactive)
- GI50 (KM12): > 100 µM (inactive)
- GI50 (LOX IMVI): > 100 µM (inactive)
- GI50 (LXFL 529): > 100 µM (inactive)
- GI50 (M14): > 100 µM (inactive)
- GI50 (M19-MEL): > 100 µM (inactive)
- GI50 (MOLT-4): 73.1 µM (inactive)
- GI50 (Malme-3M): 40.3 µM (inactive)
- GI50 (NCI-H23): > 100 µM (inactive)
- GI50 (NCI-H460): > 100 µM (inactive)
- GI50 (NCI-H522): > 100 µM (inactive)
- GI50 (OVCAR-3): > 100 µM (inactive)
- GI50 (OVCAR-4): > 100 µM (inactive)
- GI50 (OVCAR-5): > 100 µM (inactive)
- GI50 (OVCAR-8): > 100 µM (inactive)
- GI50 (RXF 393): > 100 µM (inactive)
- GI50 (RXF 631): > 100 µM (inactive)
- GI50 (SF-268): > 100 µM (inactive)
- GI50 (SF-295): > 100 µM (inactive)
- GI50 (SF-539): > 100 µM (inactive)
- GI50 (SK-MEL-28): > 100 µM (inactive)
- GI50 (SK-MEL-5): > 100 µM (inactive)
- GI50 (SN12C): > 100 µM (inactive)
- GI50 (SNB-19): > 100 µM (inactive)
- GI50 (SNB-75): 82.4 µM (inactive)
- GI50 (SNB-78): > 100 µM (inactive)
- GI50 (SR): > 100 µM (inactive)
- GI50 (SW-620): > 100 µM (inactive)
- GI50 (TK-10): > 100 µM (inactive)
- GI50 (U-251): > 100 µM (inactive)
- GI50 (UACC-257): > 100 µM (inactive)
- GI50 (UACC-62): > 100 µM (inactive)
- GI50 (UO-31): > 100 µM (inactive)
- GI50 (XF498): > 100 µM (inactive)
